According to article PMC3695784, “2,3-cis-2R,3R-(−)-epiafzelechin-3-O-p-coumarate, a novel flavan-3-ol isolated from Fallopia convolvulus seed, is an estrogen receptor agonist in human cell lines” (BMC Complementary and Alternative Medicine, 2013):
One block for each molecule: values may come before it.

Tests used:
[1] = tested on: SKBR3 cells; assay: Control SKBR3 cells with ERE-Luc plasmid but not transfected with ER; type: cell-based, human; conditions: E2 10 nM, 24 h
Protocol: SKBR3 cells were transfected with 0 .2 µ g ERE-Luc plasmid, 0.05 µ g of either pcDNA3ERα or pcDNA3ERβ, and 0.55 µg pcDNA3.1+. Control SKBR3 cells were transfected with 0.2 µ g ERE-Luc plasmid and 0.6 µ g pcDNA3.1+. Cells were treated for 24 h, lysed, and luciferase activity assessed. Luciferaseexpression was normalized using the Bradford assay.

[2] = tested on: ERα or ERβ; conditions: E2 standard set as 100%; cited from earlier work
[3] = target: T1, human ERβ (Homo sapiens, UniProt Q92731); assay: SKBR3 cells transiently transfected with ERβ and ER-responsive luciferase reporter; type: cell-based; conditions: for maximum luciferase induction, percent of maximum E2 activity: ERβ-transfected SKBR3, 10 nM E2 = 100%, normalized to protein
T1 construct: human ERβ segment (530 aa, GenBank: AF051427.1); expressed in transfected cells; host or cells: SKBR3 (human breast carcinoma), transient transfection with ERβ/pcDNA3
Description: (§1) The human ERβ expression plasmid (ERβ/pcDNA3) was constructed by PCR amplification of the human ERβ segment (530 aa, GenBank: AF051427.1) out of pCMV5 (kindly provided by Dr. John Katzenellenbogen, University of Illinois) and insertion of this fragment at BstEII and AflII restriction sites into the modified pcDNA3 construct, which was previously described. […] The human ERα expression plasmid, pcDNA3.1 + ERα, was purchased from Missouri S&T cDNA Resouce Center and was confirmed by restriction digestion. […] The generated plasmids were verified by DNA sequencing. Plasmids ERβ/pcDNA3 and ERα/pcDNA3were used as templates for in vitro expression (Additional file 2); ERα and ERβ were synthesized in vitro using the TNT Quick coupled transcription/translation rabbit reticulocyte lysate system (Promega). Briefly, ^35S-Radiolabeled hERα and hERβ were synthesized in separate reactions in vitro according to manufacturer’s protocol, denatured, and subjected to SDS-polyacrylamide gel electrophoresis, and the kDa of each protein was determined by autoradiography of the dried gel.
(§2) Protein concentration was determined using the Bradford assay.
(§3) Luciferase activity was expressed as relative light units (RLU) for assays using BG1Luc4E2 cells or as a ratio of luciferase RLU/mg protein for assays using SKBR3 cells. Protein amount (mg) was calculated from concentrations obtained in Bradford assay and the respective luciferase RLU was divided by mg protein to obtain luciferase RLU/mg protein. Average luciferase RLU (or luciferase RLU/mg protein) values were calculated from triplicate wells. Solvent luciferase RLU (or luciferase RLU/mg) was subtracted from luciferase RLU induced by chemical. In the case of extract and fractions, luciferase RLU induced by method blank was subtracted from luciferase RLU induced by extract or fraction. […] The Student’s t-test (2-tailed, paired) was used to establish significant difference of chemical/fraction/extract activity from that of solvent or method blank (p ≤ 0.05), and dose–response curves were fitted using a sigmoidal Hill’s 4-parameter algorithm (SigmaPlot v.9.0, Systat, San Jose, CA), as described previously. Half-maximal inductions of each treatment (EC50) were determined as described in [34].

[4] = tested on: ERα or ERβ; conditions: greater in ERβ; cited from earlier work
[5] = tested on: SKBR3 cells; assay: Toxicity observed in transfected SKBR3 cells (protein concentration, RLU, cell death)
Protocol: SKBR3 cells were grown and maintained in high-glucose DMEM and 10% premium FBS. SKBR3 cells were cultured in phenol red-free medium supplemented with 10% charcoal-stripped FBS for 48 h before transfection and seeded in 24-well plates at a density of 300,000 cells/mL. 24 h after plating, cells were transfected for 24 h using Lipofectamine reagent (2 μL/well) according to the manufacturer’s recommendations (0.2 μg of ER-responsive reporter plasmid pGudLuc7ere [32] and 0.05 μg receptor plasmids (ERα/pcDNA3 or ERβ/pcDNA3) or empty vector (pcDNA3.1+) per well, normalizing μg DNA/well to 0.8 μg/well with empty vector). 24 h post-transfection, SKBR3 cells were incubated for 24 h with chemical, the cells harvested, and both protein concentration and luciferase activity determined. Protein concentration was determined using the Bradford assay [35]. Briefly, 5 μL/well SKBR3 lysate was incubated for 5 min at room temperature with 1X Bradford Reagent (200 μL). Protein concentration was calibrated against a standard curve of bovine serum albumin (0.05-0.5 mg/mL) on the same plate and was measured as mg protein/mL using a PhosphorImager (Molecular Dynamics).

[6] = target: T2, estrogen receptor (Homo sapiens, UniProt P03372); assay: BG1Luc4E2 stably transfected estrogen-responsive luciferase reporter bioassay; type: cell-based
T2 construct: the BG1Luc4E2 cell line endogenously expresses ERα; endogenous in cells; host or cells: BG1Luc4E2 (human ovarian carcinoma, stably transfected ERE-luciferase reporter)
Protocol: as §2, §3

[7] = target: human ERα (Homo sapiens, UniProt P03372); assay: SKBR3 cells transiently transfected with ERα and ER-responsive luciferase reporter; type: cell-based
Description: as §1, §2
Luciferase activity was expressed as relative light units (RLU) for assays using BG1Luc4E2 cells or as a ratio of luciferase RLU/mg protein for assays using SKBR3 cells. Protein amount (mg) was calculated from concentrations obtained in Bradford assay and the respective luciferase RLU was divided by mg protein to obtain luciferase RLU/mg protein. Average luciferase RLU (or luciferase RLU/mg protein) values were calculated from triplicate wells. Solvent luciferase RLU (or luciferase RLU/mg) was subtracted from luciferase RLU induced by chemical. In the case of extract and fractions, luciferase RLU induced by method blank was subtracted from luciferase RLU induced by extract or fraction. […] Half-maximal inductions of each treatment (EC50) were determined as described in [34].

[8] = tested on: BG1Luc4E2 cells; assay: Cell death/toxicity observed in BG1Luc4E2 bioassay; type: cell-based, human
Protocol: Method blank treatments were included if applicable. […] Protein concentration was determined using the Bradford assay.

Sequence of human ERα (P03372 311-547): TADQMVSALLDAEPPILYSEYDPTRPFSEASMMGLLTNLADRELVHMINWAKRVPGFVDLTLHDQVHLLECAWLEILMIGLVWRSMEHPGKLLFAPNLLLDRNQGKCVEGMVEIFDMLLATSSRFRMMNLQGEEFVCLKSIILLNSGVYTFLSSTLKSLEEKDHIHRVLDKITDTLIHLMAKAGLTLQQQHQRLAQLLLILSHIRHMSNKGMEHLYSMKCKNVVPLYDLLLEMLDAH
T1 sequence (Q92731 whole entry): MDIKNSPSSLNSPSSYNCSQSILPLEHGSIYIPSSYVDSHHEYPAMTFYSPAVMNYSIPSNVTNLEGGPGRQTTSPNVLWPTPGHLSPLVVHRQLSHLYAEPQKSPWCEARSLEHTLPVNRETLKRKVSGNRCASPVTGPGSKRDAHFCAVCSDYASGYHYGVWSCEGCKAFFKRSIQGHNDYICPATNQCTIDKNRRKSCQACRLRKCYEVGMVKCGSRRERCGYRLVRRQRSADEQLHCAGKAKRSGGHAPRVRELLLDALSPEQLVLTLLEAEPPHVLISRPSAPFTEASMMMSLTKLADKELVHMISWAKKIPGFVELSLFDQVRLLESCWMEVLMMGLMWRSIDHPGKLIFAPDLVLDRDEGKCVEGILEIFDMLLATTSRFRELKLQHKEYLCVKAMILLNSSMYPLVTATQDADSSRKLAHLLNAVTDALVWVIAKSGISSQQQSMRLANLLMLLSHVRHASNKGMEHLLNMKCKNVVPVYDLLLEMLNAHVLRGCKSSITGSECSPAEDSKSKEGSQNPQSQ
T2 sequence (P03372 whole entry): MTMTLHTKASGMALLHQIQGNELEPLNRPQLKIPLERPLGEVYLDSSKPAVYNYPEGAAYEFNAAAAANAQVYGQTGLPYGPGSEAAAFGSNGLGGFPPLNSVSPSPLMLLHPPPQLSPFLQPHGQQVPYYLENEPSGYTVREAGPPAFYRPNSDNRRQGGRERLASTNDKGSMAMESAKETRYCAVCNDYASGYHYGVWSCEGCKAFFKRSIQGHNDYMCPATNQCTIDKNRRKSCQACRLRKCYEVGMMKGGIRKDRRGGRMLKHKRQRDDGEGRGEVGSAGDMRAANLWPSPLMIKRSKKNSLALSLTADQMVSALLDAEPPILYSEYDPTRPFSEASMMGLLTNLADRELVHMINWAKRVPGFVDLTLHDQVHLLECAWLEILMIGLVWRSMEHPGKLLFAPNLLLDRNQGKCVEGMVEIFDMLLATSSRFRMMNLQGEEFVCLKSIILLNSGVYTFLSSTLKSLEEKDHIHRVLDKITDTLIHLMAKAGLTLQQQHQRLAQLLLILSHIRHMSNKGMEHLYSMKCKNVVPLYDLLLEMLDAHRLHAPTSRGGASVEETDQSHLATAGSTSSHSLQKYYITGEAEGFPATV

Compound: C[C@]12CC[C@@H]3c4ccc(O)cc4CC[C@H]3[C@@H]1CC[C@@H]2O [E2, 17-β-estradiol]
luciferase expression in cells not transfected with ER [1]: do not express luciferase

Compound: COc1ccc(-c2coc3cc(O)cc(O)c3c2=O)cc1 [biochanin A]
relative binding affinity, ERβ versus ERα [2]: greater to ERβ than to ERα

Compound: O=c1oc2cc(O)ccc2c2oc3cc(O)ccc3c12 [coumestrol]
relative binding affinity, ERβ versus ERα [2]: greater to ERβ than to ERα

Compound: O=c1c(-c2ccc(O)cc2)coc2cc(O)ccc12 [diadzein]
relative binding affinity, ERβ versus ERα [2]: greater to ERβ than to ERα

Compound: Cc1cc(O)c2c(c1)C(=O)c1cc(O)cc(O)c1C2=O [emodin, reference compound]
maximum luciferase induction, percent of maximum E2 activity [3]: 127 ± 26%
EC50 ([3]; SKBR3 (ERβ), luciferase, 24 h, read-out: EC50 (concentration for half-maximal induction)): 3 µM
REP in ERβ-transfected versus ERα-transfected yeast cells [4]: approximately one order of magnitude
concentrations toxic to SKBR3 cells [5]: greater than 10 μM

Compound: O=c1c(-c2ccc(O)cc2)coc2cc(O)cc(O)c12 [genistein, reference compound]
concentrations resulting in significantly decreased RLU [5]: greater than 10 μM

EC50 ([6]; BG1Luc4E2 (ovarian), luciferase, 24 h, read-out: EC50 (concentration for half-maximal induction)): 120 µM
concentrations resulting in no luciferase induction ([6]; BG1Luc4E2 cells): below 31.6 μM
orders of magnitude weaker in potency than the E2 standard ([6]; BG1Luc4E2 cells): approximately 7 orders of magnitude
maximum luciferase induction, percent of maximum E2 activity ([6]; BG1Luc4E2 cells, 1 nM E2 = 100%, 24 h): > 400%
luciferase induction, percent of maximum E2 activity ([6]; BG1Luc4E2 cells, 119 μM and 158 μM, superinduction): > 400%
maximum luciferase induction, percent of maximum E2 activity ([7]; ERα-transfected SKBR3, 10 nM E2 = 100%, normalized to protein): 78 ± 8%
REP (relative estrogenic potency = EC50 E2/EC50 chemical) ([7]; SKBR3 (ERα)): 3.4 × 10^-6
EC50 ([7]; SKBR3 (ERα), luciferase, 24 h, read-out: EC50 (concentration for half-maximal induction)): 5.8 µM
maximum luciferase induction, percent of maximum E2 activity [3]: 80 ± 10%
REP (relative estrogenic potency = EC50 E2/EC50 chemical) ([3]; SKBR3 (ERβ)): 1.5 × 10^-5
Compound: O=C(C=Cc1ccc(O)cc1)OC1Cc2c(O)cc(O)cc2OC1c1ccc(O)cc1 [rhodoeosein, 2,3-cis-(2R,3R)-(−)-epiafzelechin-3-O-p-coumarate]
concentrations that killed BG1Luc4E2 cells ([8]; 24 h incubation): ≥ 250 µM
effect on cells at 0.25, 0.316, and 1 mM ([8]; BG1Luc4E2 cells): caused cell death
toxicity at 197 μM ([8]; BG1Luc4E2 cells, 197 μM): no toxicity
concentrations resulting in significantly decreased protein concentration [5]: greater than 100 μM
effect on cells at 0.316 mM [5]: caused cell death
